Assay results: patent US10653146B2, “Microbiocidal oxadiazole derivatives” (SYNGENTA PARTICIPATIONS AG, priority 2016, dated 2020)

Assays:
Phakopsora pachyrhizi = test: Fungicidal activity against Phakopsora pachyrhizi / soybean / leaf disc preventative (Asian soybean rust); format: in vivo; conditions: foliar, 200 ppm in the applied formulation, soybean leaf disks, inoculated one day after application, assessed 12 to 14 days after application, read-out: disease control compared to untreated control leaf disks
Procedure: (§1) Leaf disks or leaf segments of various plant species are cut from plants grown in a greenhouse. The cut leaf disks or segments are placed in multiwell plates (24-well format) onto water agar. The leaf disks are sprayed with a test solution before (preventative) or after (curative) inoculation. Compounds to be tested are prepared as DMSO solutions (max. 10 mg/ml) which are diluted to the appropriate concentration with 0.025% Tween20 just before spraying. The inoculated leaf disks or segments are incubated under defined conditions (temperature, relative humidity, light, etc.) according to the respective test system. A single evaluation of disease level is carried out 3 to 14 days after inoculation, depending on the pathosystem. Percent disease control relative to the untreated check leaf disks or segments is then calculated.
Soybean leaf disks are placed on water agar in multiwell plates (24-well format) and sprayed with the formulated test compound diluted in water. One day after application leaf discs are inoculated by spraying a spore suspension on the lower leaf surface. After an incubation period in a climate cabinet of 24-36 hours in darkness at 20° C. and 75% rh leaf disc are kept at 20° C. with 12 h light/day and 75% rh. The activity of a compound is assessed as percent disease control compared to untreated when an appropriate level of disease damage appears in untreated check leaf disks (12 to 14 days after application).
(§2) The following compounds at 200 ppm in the applied formulation give at least 80% disease control in this test when compared to untreated control leaf disks under the same conditions, which show extensive disease development.

[1] = system: Puccinia recondite f. Sp. Tritici; test: Fungicidal activity against Puccinia recondite f. sp. tritici / wheat / leaf disc curative (brown rust); format: in vivo; conditions: foliar, 200 ppm in the applied formulation, wheat leaf segments cv. Kanzler, applied 1 day after inoculation, assessed 6 to 8 days after application, read-out: disease control compared to untreated control leaf disks
Procedure: as §1
Wheat leaf segments cv. Kanzler are placed on agar in multiwell plates (24-well format). The leaf segments are then inoculated with a spore suspension of the fungus. Plates were stored in darkness at 19° C. and 75% relative humidity. The formulated test compound diluted in water was applied 1 day after inoculation. The leaf segments were incubated at 19° C. and 75% relative humidity under a light regime of 12 hours light/12 hours darkness in a climate cabinet and the activity of a compound was assessed as percent disease control compared to untreated when an appropriate level of disease damage appears in untreated check leaf segments (6 to 8 days after application).
as §2

[2] = system: Glomerella lagenarium (Colletotrichum lagenarium); test: Fungicidal activity against Glomerella lagenarium (Colletotrichum lagenarium) liquid culture / cucumber / preventative (anthracnose); format: cell-based; conditions: Colletotrichum orbiculare; 20 ppm in the applied formulation; liquid culture in PDB, 24° C.; 3 to 4 days after application; read-out: disease control compared to untreated control (inhibition of growth measured photometrically)
Procedure: Mycelia fragments or conidia suspensions of a fungus prepared either freshly from liquid cultures of the fungus or from cryogenic storage, are directly mixed into nutrient broth. DMSO solutions of the test compound (max. 10 mg/ml) are diluted with 0.025% Tween20 by a factor of 50 and 10 μl of this solution is pipetted into a microtiter plate (96-well format). The nutrient broth containing the fungal spores/mycelia fragments is then added to give an end concentration of the tested compound. The test plates are incubated in the dark at 24° C. and 96% relative humidity. The inhibition of fungal growth is determined photometrically after 2 to 7 days, depending on the pathosystem, and percent antifungal activity relative to the untreated check is calculated.
Conidia of the fungus from cryogenic storage are directly mixed into nutrient broth (PDB—potato dextrose broth). After placing a (DMSO) solution of test compound into a microtiter plate (96-well format), the nutrient broth containing the fungal spores is added. The test plates are incubated at 24° C. and the inhibition of growth is measured photometrically 3 to 4 days after application.
The following compounds at 20 ppm in the applied formulation give at least 80% disease control in this test when compared to untreated control under the same conditions, which show extensive disease development.

[3] = system: Puccinia recondita f. Sp. Tritici; test: Fungicidal activity against Puccinia recondita f. sp. tritici / wheat / leaf disc preventative (brown rust); format: in vivo; conditions: foliar, 200 ppm in the applied formulation, wheat leaf segments cv. Kanzler, inoculated 1 day after application, assessed 7 to 9 days after application, read-out: disease control compared to untreated control leaf disks
Procedure: as §1, with “calculated. Wheat leaf segments cv. Kanzler were placed on agar in multiwell plates (24-well format) and sprayed with the formulated test compound diluted in water. The leaf disks were inoculated with a spore suspension of the fungus 1 day after application. The inoculated leaf segments were incubated at 19° C. and 75% relative humidity (rh) under a light regime of 12 hours light/12 hours darkness in a climate cabinet and the activity of a compound was assessed as percent disease control compared to untreated when an appropriate level of disease damage appears in untreated check leaf segments (7 to 9 days after application). The following compounds at 200 ppm in the applied formulation give at least 80% disease control in this test when compared to untreated control leaf disks under the same conditions, which show extensive disease development.” for “calculated.”

| SMILES | melting point [°C] | pest or weed control at 200 ppm (Phakopsora pachyrhizi) [%] | pest or weed control at 200 ppm [1] [%] | inhibition at 20 ppm [2] [%] | pest or weed control at 200 ppm [3] [%] |
| --- | --- | --- | --- | --- | --- |
| CCN1OCC(NC(=O)C(=O)c2ccc(-c3noc(C(F)(F)F)n3)cc2)C1=O (centres unmarked) [Compound 1.21, N-(2-ethyl-3-oxo-isoxazolidin-4-yl)-2-oxo-2-[4-[5-(trifluoromethyl)-1,2,4-oxadiazol-3-yl]phenyl]acetamide] | 162 to 165 | ≥ 80 | ≥ 80 | ≥ 80 | ≥ 80 |
| COc1cccc(NC(=O)C(=O)c2ccc(-c3noc(C(F)(F)F)n3)cc2)n1 [Compound 1.24, N-(6-methoxy-2-pyridyl)-2-oxo-2-[4-[5-(trifluoromethyl)-1,2,4-oxadiazol-3-yl]phenyl]acetamide] | 118 to 120 | ≥ 80 | – | ≥ 80 | ≥ 80 |
| C=CCNC(=O)C(=O)c1ccc(-c2noc(C(F)(F)F)n2)cc1 [Compound 1.25, N-allyl-2-oxo-2-[4-[5-(trifluoromethyl)-1,2,4-oxadiazol-3-yl]phenyl]acetamide] | 71 to 74 | ≥ 80 | ≥ 80 | ≥ 80 | ≥ 80 |
| COC(CNC(=O)C(=O)c1ccc(-c2noc(C(F)(F)F)n2)cc1)OC [Compound 1.38, N-(2,2-dimethoxyethyl)-2-oxo-2-[4-[5-(trifluoromethyl)-1,2,4-oxadiazol-3-yl]phenyl]acetamide] | 88 to 89 | – | ≥ 80 | ≥ 80 | ≥ 80 |
| C#CCNC(=O)C(=O)c1ccc(-c2noc(C(F)(F)F)n2)cc1 [Compound 1.41, 2-oxo-N-prop-2-ynyl-2-[4-[5-(trifluoromethyl)-1,2,4-oxadiazol-3-yl]phenyl]acetamide] | 79 to 84 | ≥ 80 | ≥ 80 | ≥ 80 | ≥ 80 |
| CCCNC(=O)C(=O)c1ccc(-c2noc(C(F)(F)F)n2)cc1 [Compound 1.42, 2-oxo-N-propyl-2-[4-[5-(trifluoromethyl)-1,2,4-oxadiazol-3-yl]phenyl]acetamide] | – | ≥ 80 | ≥ 80 | ≥ 80 | ≥ 80 |
| O=C(NCC1CC1)C(=O)c1ccc(-c2noc(C(F)(F)F)n2)cc1 [Compound 1.43, N-(cyclopropyl-methyl)-2-oxo-2-[4-[5-(trifluoromethyl)-1,2,4-oxadiazol-3-yl]phenyl]acetamide] | 86 to 95 | ≥ 80 | ≥ 80 | ≥ 80 | ≥ 80 |

Further lines, with some results ahead:

| melting point [°C] | SMILES | pest or weed control at 200 ppm (Phakopsora pachyrhizi) [%] | pest or weed control at 200 ppm [1] [%] | inhibition at 20 ppm [2] [%] | pest or weed control at 200 ppm [3] [%] |
| --- | --- | --- | --- | --- | --- |
| 94 to 100 | O=C(NCCF)C(=O)c1ccc(-c2noc(C(F)(F)F)n2)cc1 [Compound 1.31, N-(2-fluoroethyl)-2-oxo-2-[4-[5-(trifluoromethyl)-1,2,4-oxadiazol-3-yl]phenyl]acetamide] | ≥ 80 | ≥ 80 | ≥ 80 | ≥ 80 |
| 64 to 70 | O=C(NC1CCCC1(F)F)C(=O)c1ccc(-c2noc(C(F)(F)F)n2)cc1 (centres unmarked) [Compound 1.34, N-(2,2-difluoro-cyclopentyl)-2-oxo-2-[4-[5-(trifluoromethyl)-1,2,4-oxadiazol-3-yl]phenyl]acetamide] | ≥ 80 | ≥ 80 | ≥ 80 | ≥ 80 |
| 155 to 156 | CC(C)(C)OC(=O)NCCNC(=O)C(=O)c1ccc(-c2noc(C(F)(F)F)n2)cc1 [Compound 1.37, tert-butyl N-[2-[[2-oxo-2-[4-[5-(trifluoromethyl)-1,2,4-oxadiazol-3-yl]phenyl]acet-yl]amino]eth-yl]carbamate] | ≥ 80 | – | – | ≥ 80 |
| 105 to 110 | CCNC(=O)C(=O)c1ccc(-c2noc(C(F)(F)F)n2)cc1 [Compound 1.39, N-ethyl-2-oxo-2-[4-[5-(trifluoromethyl)-1,2,4-oxadiazol-3-yl]phenyl]acetamide] | ≥ 80 | ≥ 80 | ≥ 80 | ≥ 80 |
